Source: paper PMC4356641 (European journal of oral sciences, 2015)
Values joined by “and” are separate entries in the source; they are usually repeats but may differ in a detail not shown here. Equal values may be shown once.

Key:
MMP-8 = details: cited from earlier work
MMP-9 = details: cited from earlier work
MMP-2 = details: cited from earlier work
[1] = system: demineralized dentin collagen; details: cited from earlier work
soluble MMP-9 = details: cited from earlier work
[2] = system: total endogenous MMP activity of dentin (matrix-bound MMPs); type: biochemical, human; details: 1.0% w/v aqueous BAC applied for 60 s; relative to untreated control with 0% inhibition; mean (SD), n = 10
MMP = details: cited from earlier work

In the case of `[H]/N=C(\N/C(=N/[H])NCCCCCCNC(=N)NC(=N)Nc1ccc(Cl)cc1)Nc1ccc(Cl)cc1` [CHX, Chlorhexidine], the “Inhibition of MMP-8” value (MMP-8) is listed as “potent inhibitor”, the “Inhibition of MMP-9” value (MMP-9) is listed as “potent inhibitor” and the “Inhibition of MMP-2” value (MMP-2) is listed as “potent inhibitor”.
For `C=C(C)C(=O)OCCCCCCCCCCCC[n+]1ccccc1.[Br-]` [MDPB, 12-methacryloyloxydodecylpyridinium bromide], the “Inhibition of degradation of demineralized dentin collagen” value [1] is given as “almost completely inhibited” and the “Inhibition of soluble MMP-9” value (soluble MMP-9) is given as “effectively inhibited soluble MMP-9 as or more effectively as Galardin”.
In the case of Benzalkonium chloride [BAC], the “% MMP inhibition (total MMP activity)” value [2] is listed as 54% and 54.2 (9.0) ^C %, the MMP inhibition (MMP; 1.0% BAC) is listed as 55–66% and the “MMP inhibition relative to 1.0% BAC” value (MMP; 2.0% BAC) is listed as “did not yield additional MMP inhibition”.
